Target: Mitogen-activated protein kinase kinase kinase kinase 1 (Homo sapiens, UniProt Q92918)
Assay: Binding Assay
Method: Lanth: For the binding assay, 4 ul 2×HPK1 and Eu-anti-GST antibody were added to each well of the assay plate using a Multidrop reagent dispenser. The solutions were incubated in a 23 C incubator for 1 h. To each well of the assay plate was added 4 ul 2× Tracer-222 using a Multidrop reagent dispenser. The solutions were again incubated in a 23 C incubator for 1 h. The results of the assay were read using an Envision plate reader with the following parameters: TR_FRET, 340ex/615 and 665em; 100 usec Delay; and 200 usec integration.

Mitogen-activated protein kinase kinase kinase kinase 1, sequence (Q92918 whole entry): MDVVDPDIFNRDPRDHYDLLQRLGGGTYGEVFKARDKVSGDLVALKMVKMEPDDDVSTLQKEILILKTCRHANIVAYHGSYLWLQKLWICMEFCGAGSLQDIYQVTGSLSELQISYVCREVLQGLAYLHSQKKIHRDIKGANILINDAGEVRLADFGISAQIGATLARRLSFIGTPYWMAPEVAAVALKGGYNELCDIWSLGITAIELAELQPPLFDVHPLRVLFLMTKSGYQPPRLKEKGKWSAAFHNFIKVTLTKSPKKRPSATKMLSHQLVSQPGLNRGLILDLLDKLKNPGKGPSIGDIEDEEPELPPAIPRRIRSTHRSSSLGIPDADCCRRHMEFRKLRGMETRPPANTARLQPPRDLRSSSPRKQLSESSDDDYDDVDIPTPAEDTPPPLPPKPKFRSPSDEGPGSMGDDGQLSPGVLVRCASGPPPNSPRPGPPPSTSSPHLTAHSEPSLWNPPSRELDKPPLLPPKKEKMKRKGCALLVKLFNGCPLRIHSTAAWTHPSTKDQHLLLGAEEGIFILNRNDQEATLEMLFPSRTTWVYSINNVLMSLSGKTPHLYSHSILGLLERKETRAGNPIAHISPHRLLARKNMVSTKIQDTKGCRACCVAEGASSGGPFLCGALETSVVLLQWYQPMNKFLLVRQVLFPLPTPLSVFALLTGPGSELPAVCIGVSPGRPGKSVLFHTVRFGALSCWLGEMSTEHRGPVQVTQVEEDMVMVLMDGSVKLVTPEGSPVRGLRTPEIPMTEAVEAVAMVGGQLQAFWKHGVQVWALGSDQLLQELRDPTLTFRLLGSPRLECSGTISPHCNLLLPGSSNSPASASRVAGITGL

- Ki: 2.87 nM
SMILES: Cn1cc(-c2cc3cc(NC(=O)[C@H]4C[C@H]4F)ncc3c(N)n2)cn1 [US11034692, Compound 4]
